Legend:
[1] = tested on: AVEFA: wild oats (Avena fatua); test: Post-Emergent Test I herbicidal activity; format: in vivo; conditions: 4 Kg ai/ha
Experimental: (§1) Post-Emergent Test I: Seeds test species were obtained from commercial suppliers and planted into a 5″-round pot containing soil-less media mix (Metro-Mix 360®, Sun Gro Horticulture). Postemergence treatments were planted 8-12 days (d) prior to application and cultured in a greenhouse equipped with supplemental light sources to provide a 16 hour (h) photoperiod at 24-29° C. All pots were surface irrigated. Approximately 10 milligrams (mg) of each compound were dissolved in 1.3 mL acetone-DMSO (97:3, v/v) and diluted with 4.1 mL water-isopropanol-crop oil concentrate (78:20:2, v/v/v) containing 0.02% Triton X-155. Treatments were serial diluted with the above formulation solvent to provide 1.85, 0.926, 0.462 and 0.231 mg/mL of test compound delivered in 2.7 mL/pot (roughly equivalent to 4.0, 2.0, 1.0, and 0.5 kg/ha, respectively). Formulated compounds were applied using a DeVilbiss® compressed air sprayer at 2-4 pounds per square inch (psi). Following treatment, pots were returned to the greenhouse for the duration of the experiment. All pots were sub-irrigated as need to provide optimum growing conditions. All pots were fertilized one time per week by subirrigating with Peters Peat-Lite Special® fertilizer (20-10-20). Phytotoxicity ratings were obtained 10 days after treatment postemergence applications. All evaluations were made visually on a scale of 0 to 100 where 0 represents no activity and 100 represents complete plant death. Visual assessments of plant injury were made based on growth reduction, discoloration, leaf deformity and necrosis.

[2] = tested on: ECHCG: barnyardgrass (Echinochloa crus-galli); test: Post-Emergent Test I herbicidal activity; format: in vivo; conditions: 4 Kg ai/ha
Experimental: as §1

[3] = tested on: HELAN: sunflower (Helianthus annuus); test: Post-Emergent Test I herbicidal activity; format: in vivo; conditions: 4 Kg ai/ha
Experimental: as §1

[4] = tested on: IPOHE: ivyleaf morningglory (Ipomoea hederecea); test: Post-Emergent Test I herbicidal activity; format: in vivo; conditions: 4 Kg ai/ha
Experimental: as §1

[5] = tested on: SETFA: giant foxtail (Setaria faberi); test: Post-Emergent Test I herbicidal activity; format: in vivo; conditions: 4 Kg ai/ha
Experimental: as §1

melting point [°C] | SMILES | Visual Growth Reduction (%) 10 Days After Application AVEFA [1] | Visual Growth Reduction (%) 10 Days After Application ECHCG [2] | Visual Growth Reduction (%) 10 Days After Application HELAN [3] | Visual Growth Reduction (%) 10 Days After Application IPOHE [4] | Visual Growth Reduction (%) 10 Days After Application SETFA [5]
 | COC(=O)c1nc(-c2ccc3nonc3c2F)cc(N)c1Cl [Compound 6, Methyl 4-amino-3-chloro-6-(4-fluorobenzo[c][1,2,5]oxadiazol-5-yl)picolinate] | G (0-29) | G (0-29) | G (0-29) | G (0-29) | G (0-29)
177 to 178 | Nc1cc(-c2cc3nonc3cc2F)nc(C(=O)O)c1Cl [Compound 7] |  |  |  |  | 

From patent US9006250B2, “4-amino-6-(heterocyclic)picolinates and 6-amino-2-(heterocyclic)pyrimidine-4-carboxylates and their use as herbicides” (Dow AgroSciences, LLC, priority 2013, dated 2015)
